From ChEMBL document CHEMBL5604062, “ASAP - ZIKV NS2B-NS3 protease fluorescence dose response” (2024)
pIC50: −log10 of the molar value. “And” between values parts separate entries of the source, which are not always exact repeats. Equal values may be shown once.

target: Nonstructural protein 3 (Zika virus, UniProt A0A024AXB9); assay: Functional biochemical assay to identify treatments for viral infectious disease that targets Zika NS2B-NS3 protease. Utilizing a direct enzyme activity measurement method, reading the fluorescence intensity is used to characterize the relative potency of inhibitors as IC50.; set-up: species or system PRVABC59
Sequence (A0A024AXB9 whole entry): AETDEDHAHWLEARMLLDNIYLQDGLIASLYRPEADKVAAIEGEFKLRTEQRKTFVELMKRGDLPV

| SMILES | pIC50 |
| --- | --- |
| NCc1cccc(NC(=O)Cc2cc(Cl)cc(NC(=O)OCc3ccccc3)c2)c1 | 4.34 |
| O=C(O)Cn1nc2ccc(-c3cc(Cl)cc(NC(=O)OCc4ccccc4)c3)nn2c1=O | < 4.00 |
| O=C(Nc1cc(-c2cccnc2)ccn1)c1csc(C[C@H]2CCNC2)n1 | < 4.60 |
| Cc1ccc(CN)cc1-c1cccc([C@H](NC(=O)OCc2ccccc2)C(=O)Nc2cccc(CN)c2)c1 | 4.74 |
| COc1cc(C(=O)Nc2ccc3c(c2)CNC3)cc2cnn(C)c12 | < 4.60 |
| O=C(Nc1ccc2c(c1)CNC2)c1cc(F)cc(C2=CCCOC2)c1 | 6.53 |
| O=S(=O)(c1cccnc1)N1CCN(Cc2c[nH]c3ccccc23)CC1 | < 4.00 |
| CCn1ccnc(N[C@@H](Cc2c[nH]c3ccccc23)C(N)=O)c1=O | < 4.00 |
| O=C(Nc1cccc(-n2nn[nH]c2=O)c1)c1cc(Cl)cc2c1CCC2 | < 4.00 |
| O=C1Cc2c(cccc2C(=O)Nc2ccc3c(c2)CNCCO3)N1 | 5.83 |
| N#Cc1c[nH]c2ccc(C(=O)Nc3ccc4c(c3)CNC4)cc12 | 6.31 |
| CNC(=O)c1cc(C#N)ccc1NS(=O)(=O)c1ccc(Oc2ccccc2Cl)cc1 | < 4.00 |
| Cc1c(C(=O)Nc2cc(-c3cccnc3)ccn2)cnn1C1CC1 | < 4.60 |
| Cc1c(C(=O)Nc2cc(CN(C)C)ccn2)cc(C2CC2)n1C | < 4.60 |
| Cc1cc(CN)cc(NS(=O)(=O)c2ccc(Oc3ccccc3Cl)cc2)c1 | < 4.00 |
| NCc1cccc(NC(=O)[C@H](NC(=O)OCc2ccccc2)C2CCN(C3CCCC3)CC2)c1 | < 4.00 |
| NC[C@H]1CC[C@H](NC(=O)[C@@H](NC(=O)OCc2ccccc2)c2ccc(OCc3ccccc3)cc2)CC1 | 4.09 |
| CNC(=O)[C@H](Nc1ccc(-c2nnn[nH]2)cc1)c1cc(Cl)cc(C2CC2)c1 | < 4.00 |
| NCc1cccc(NC(=O)C[C@@H](NC(=O)OCc2ccccc2)c2ccc3c(c2)OCO3)c1 | < 4.00 |
| O=C(NCc1nccs1)c1sccc1Cl | < 4.00 |
| CCOc1cc(COc2cccnc2F)nc(N2CCNCC2)n1 | < 4.00 |
| O=c1ccc(N2CCN(Cc3c[nH]c4ccccc34)CC2)n[nH]1 | < 4.00 |
| NC[C@H]1C[C@@H](CNC(=O)c2cc(Cl)cc(NC(=O)OCc3ccccc3)c2)CCO1 | < 4.00 |
| CN1CCc2nc(NC(=O)[C@@H](NC(=O)OCc3ccccc3)c3ccc(OCc4ccccc4)cc3)sc2C1 | < 4.00 |
| COCc1nn(CC#Cc2ccc(Cl)cc2)c(=O)o1 | < 4.00 |
| Cc1cc(C(=O)O)c(NS(=O)(=O)c2ccc(Oc3ccccc3Cl)cc2)cc1F | 4.67 |

| SMILES | pIC50 |
| --- | --- |
| N#C[C@H](Nc1cccc(-c2nn[nH]n2)c1)c1cc(Cl)cc(NC(=O)OCc2ccccc2)c1 | 4.61 and 4.56 |
| Cc1cnccc1-c1cc(NC(=O)c2cc(F)cc3[nH]ncc23)cc2c1CNC2 | 6.94 |
| C=C(C)c1cccc([C@@H](NC(=O)OCc2ccccc2)C(=O)Nc2cccc(CN)c2)c1 | 5.02 |
| Cn1cc2c(C(=O)Nc3ccc4c(c3)CNC4)cc(Cl)cc2n1 | 6.80 |
| OCc1ccc(Cl)c(N2CCN(c3ccc4[nH]cnc4c3)CC2)n1 | < 4.00 |
| O=C(Nc1ccc(-n2nn[nH]c2=O)cc1)c1cc(Cl)cc(C2CC2)c1 | < 4.00 |
| CCc1ccc([C@@H](NC(=O)OCc2ccccc2)C(=O)Nc2cccc(CN)c2)cc1 | < 4.00 |
| O=C(Nc1cc([C@H]2CCOC2)ccn1)c1cc(F)c2[nH]ccc2c1 | < 4.60 |
| NCc1ccc(O)c(NC(=O)c2cc(Cl)cc(NC(=O)OCc3ccccc3)c2)c1 | 4.74 |
| O=C(Nc1cc(Cl)cc(C(=O)Nc2nc3c(s2)CNC3)c1)OCc1ccccc1 | 4.07 |
| O=C(Nc1cc(-c2cccnc2)ccn1)c1sc2c(c1Br)CNC2 | < 4.60 |
| CC(=O)N1CCC([C@H](NC(=O)OCc2ccccc2)C(=O)Nc2cccc(CN)c2)CC1 | < 4.00 |
| CCn1c(=O)c(N2CCCC[C@H](N3CCCC3)C2)nc2ccccc21 | < 4.00 |
| NCc1cccc(NC(=O)[C@@H](NC(=O)OCc2ccccc2)c2cccnc2)c1 | < 4.00 |
| N#C[C@H](Nc1cc(Cl)cc(C2CC2)c1)c1ccc(-c2nn[nH]n2)cc1 | 4.12 |
| O=C(Nc1cccc(-n2nn[nH]c2=O)c1)c1cc(Cl)cc(N2CCCC2=O)c1 | < 4.00 |
| O=C(NCc1ccc(F)cc1)[C@H](Nc1ccc2c(c1)CNC2)c1cc(Cl)cc2[nH]ncc12 | 7.11 and 7.19 |
| N[C@@H]1CC[C@H](NC(=O)c2cc(Cl)cc(NC(=O)OCc3ccccc3)c2)C1 | 4.34 |
| O=C(O)c1ccc(F)c(F)c1NS(=O)(=O)c1ccc(Oc2ccccc2Cl)cc1 | < 4.00 |
| O=C(Nc1cccc(-n2nn[nH]c2=O)c1)c1cc(Cl)cc(C2CC2)c1 | < 4.00 |
| O=C(Nc1cc(Cl)cc(C(=O)Nc2ccnc([C@H]3CCCN3)n2)c1)OCc1ccccc1 | 4.08 |
| O=C(NC[C@H]1CCCO1)[C@H](Nc1ccc2c(c1)CNC2)c1cc(Cl)cc(C2CC2)c1 | 7.15 and 7.28 |
| CCc1[nH]c2ccccc2c1CN1CCC(c2cscn2)CC1 | 4.68 |
| O=C(Nc1ccc2c(c1)CNC2)c1cc(F)c2[nH]ccc2c1 | 6.56 |
| O=C(O)Cc1cc(NS(=O)(=O)c2ccc(Oc3ccccc3Cl)cc2)ccc1Cl | < 4.00 |
| O=C(Nc1cc(Cl)cc(C(=O)Nc2ccnc(C(=O)O)c2)c1)OCc1ccccc1 | < 4.00 |

| SMILES | pIC50 |
| --- | --- |
| NC[C@H]1CC[C@@H](CNC(=O)[C@@H](NC(=O)OCc2ccccc2)c2ccc(OCc3ccccc3)cc2)CC1 | 4.24 |
| O=C(Cn1ccnc(N2CC[C@H](CO)C2)c1=O)N[C@H]1CCOC1 | < 4.00 |
| COC1(C(=O)N[C@H](CC(=O)Nc2cccc(CN)c2)c2ccc(OCc3ccccc3)c(Br)c2)CC1 | 4.31 |
| CNC(=O)[C@H](Nc1cc(CN)cc(C(=O)O)c1)c1cc(Cl)cc(NC(=O)OCc2ccccc2)c1 | 5.94 |
| CC(C)CNC(=O)c1cc(Cl)ccc1C=Cc1ccc(Oc2ccccc2Cl)cc1 | < 4.00 |
| Fc1cc(CNc2ccc3c(c2)CNC3)c2cn[nH]c2c1 | 5.45 |
| Cn1nc(C2CC2)cc1C(=O)Nc1cc(-c2cccnc2)ccn1 | < 4.60 |
| NCc1cccc(NC(=O)[C@@H]2C[C@@H](O)CN2C(=O)C23CC4CC(CC(C4)C2)C3)c1 | < 4.00 |
| CS(=O)(=O)N1CCC([C@@H](NC(=O)OCc2ccccc2)C(=O)Nc2cccc(CN)c2)CC1 | < 4.00 |
| CC(C)(C)OC(=O)N1C[C@@H](O)[C@H](c2c[nH]c3ccccc23)C1 | < 4.00 |
| NC[C@H]1CCN1C(=O)[C@@H](NC(=O)OCc1ccccc1)c1ccc(OCc2ccccc2)cc1 | < 4.00 |
| O=C(O)c1cccc(CCc2cc(Cl)cc3[nH]ncc23)c1 | < 4.00 |
| CN1CCC(COc2ccc([C@@H](NC(=O)OCc3ccccc3)C(=O)Nc3cccc(CN)c3)cc2)CC1 | 4.08 |
| CCCN(C)C(=O)c1cc(Cl)ccc1NS(=O)(=O)c1ccc(Oc2ccccc2Cl)cc1 | < 4.00 |
| CSCc1nnc(SCc2ccncc2)o1 | < 4.00 |
| N=C(N)NCCc1ccc(NC(=O)c2ccccc2)cc1 | < 3.70 |
| O=C(Nc1cc(Cl)cc(C(=O)NC2(c3nnn[nH]3)CC2)c1)OCc1ccccc1 | < 4.00 |
| CCn1c(=O)c(N2C[C@@H]3C[C@]3(CO)C2)nc2ccccc21 | < 4.00 |
| O=C(Nc1ccc2c(c1)CNCCO2)c1cc(Cl)cc2[nH]ncc12 | 6.08 |
| CC[C@H](Cc1nnn[nH]1)c1ccc(NC(=O)[C@H]2[C@H]3CCCCC[C@H]3[C@H]2NC(=O)OCc2ccccc2)cc1 | 4.28 |
| Cc1nc2c(C(=O)Nc3ccc4c(c3)CNC4)cccc2[nH]1 | 5.44 |
| CCn1cc(-c2ccncc2F)nc(N2CC[C@@H](CO)C2)c1=O | < 4.00 |
| NCc1ccc(-c2ncc(OCC3CCNCC3)nc2-c2ccc(-c3ccoc3)cc2)cc1 | < 4.00 |
| N[C@H](CO)c1cccc(NC(=O)c2cc(Cl)cc(NC(=O)OCc3ccccc3)c2)c1 | 4.24 |
| CC(C)c1ccc(Cl)cc1C(=O)Nc1ccc2c(c1)CNC2 | 5.63 |
| O=C(O)[C@H]1C[C@H](n2ccc(Cc3c[nH]c4ccc(Cl)cc34)n2)C1 | < 4.00 |

| SMILES | pIC50 |
| --- | --- |
| CN(C)[C@@H]1CCC[C@H](C(=O)Nc2cccc(CN)c2)C1 | < 4.00 |
| O=C(Nc1cc(-c2cccnc2)ccn1)c1cc2n(n1)CCC2 | < 4.60 |
| COc1cc(Cl)cc(C(=O)O)c1NS(=O)(=O)c1ccc(Oc2ccccc2Cl)cc1 | 4.36 |
| CCn1cc(-c2cc(F)ccc2C)nc(N2CC[C@@H](CO)C2)c1=O | < 4.00 |
| Cc1cc(CN)cc(NC(=O)c2cc(Cl)cc(NC(=O)OCc3ccccc3)c2)c1 | 5.29 |
| O=C(Nc1ccc2c(c1)CNC2)c1cc(Cl)cc2c1CCC2 | 6.80 |
| CCc1cc(C)nc(C2CCN(Cc3c[nH]c4ccccc34)CC2)n1 | 4.23 |
| O=C(Nc1cc(Cl)cc(C(=O)Nc2ccc(N3CCNCC3)c(F)c2)c1)OCc1ccccc1 | 4.80 |
| O=S(=O)(Nc1ccc(Oc2ccccc2Cl)cc1)c1c[nH]c2ccc(Cl)cc12 | < 4.00 |
| NCCc1cccc(NC(=O)c2cc(Cl)cc(NC(=O)OCc3ccccc3)c2)c1 | 5.39 and 5.41 |
| O=C(N[C@@H](C(=O)Nc1ccncc1)c1ccc(OCc2ccccc2)cc1)OCc1ccccc1 | < 4.00 |
| CN(C)Cc1cc(Cl)cc(C(=O)Nc2cccc(CN)c2)c1 | 5.10 |
| Nc1cccc(NC(=O)c2cc(Cl)cc(NC(=O)OCc3ccccc3)c2)n1 | < 4.00 |
| O=C(O)c1cc(Cl)ccc1NS(=O)(=O)c1ccc(NC2CCNCC2)nc1 | < 4.00 |
| O=S(=O)(c1cccs1)N1CCN(CC=Cc2ccccc2)CC1 | < 4.00 |
| NCc1cccc(NC(=O)[C@H](NC(=O)OCc2ccccc2)C2CCN(C(=O)C3CCOCC3)CC2)c1 | < 4.00 |
| CS(=O)(=O)Nc1cccc(C(=O)Nc2ccc3c(c2)CNC3)c1 | 4.89 |
| C[C@](C#N)(Nc1ccc2c(c1)CNC2)c1cccc(Cl)c1 | < 4.60 |
| NCc1cccc(NC(=O)[C@@H](NC(=O)OCc2ccccc2)c2ccc(OCc3nc4c(s3)COCC4)cc2)c1 | 4.19 |
| C[S@@+]([O-])c1nncn1Cc1ccc(Cl)s1 | < 4.00 |
| O=C(O)c1ccc(C2CCN(Cc3c[nH]c4ccccc34)CC2)cc1 | < 4.00 |
| NCc1cccc(NC(=O)c2c(C(F)(F)F)nc3n2CCCC3)c1 | < 4.00 |
| O=C(Nc1cc(Cl)cc(C(=O)Nc2ccc(C3CCNCC3)cc2)c1)OCc1ccccc1 | 5.22 |
| NCc1cccc(NC(=O)C[C@H](NC(=O)OCc2ccccc2)c2ccc(Br)cc2)c1 | 4.31 |
| Cn1nc(NC(=O)c2cc(Cl)cc(NC(=O)OCc3ccccc3)c2)c2c1CNC2 | < 4.00 |
